# Data as given in patent US11642348B2, “Substituted benzene compounds” (Epizyme, Inc., priority 2012, dated 2023).
# Where two headings read alike, the source gives them in different places.
# How the values were obtained:
# [1] = tested on: H3K27me3 in WSU-DLCL2 cells; assay: WSU-DLCL2 methylation assay (H3K27me3 ELISA); assay type: cell-based; settings: Homo sapiens, 96 hours
# Source text: WSU-DLCL2 suspension cells were purchased from DSMZ (German Collection of Microorganisms and Cell Cultures, Braunschweig, Germany). RPMI/Glutamax Medium, Penicillin-Streptomycin, Heat Inactivated Fetal Bovine Serum, and D-PBS were purchased from Life Technologies, Grand Island, N.Y., USA. Extraction Buffer and Neutralization Buffer (5×) were purchased from Active Motif, Carlsbad, Calif., USA. Rabbit anti-Histone H3 antibody was purchased from Abcam, Cambridge, Mass., USA. Rabbit anti-H3K27me3 and HRP-conjugated anti-rabbit-IgG were purchased from Cell Signaling Technology, Danvers, Mass., USA. TMB “Super Sensitive” substrate was sourced from BioFX Laboratories, Owings Mills, Md., USA. IgG-free Bovine Serum Albumin was purchased from Jackson ImmunoResearch, West Grove, Pa., USA. PBS with Tween (10×PBST) was purchased from KPL, Gaithersburg, Md., USA. Sulfuric Acid was purchased from Ricca Chemical, Arlington, Tex., USA. Immulon ELISA plates were purchased from Thermo, Rochester, N.Y., USA. V-bottom cell culture plates were purchased from Corning Inc., Corning, N.Y., USA. V-bottom polypropylene plates were purchased from Greiner Bio-One, Monroe, N.C., USA.
# WSU-DLCL2 cells were seeded in assay medium at a concentration of 50,000 cells per mL to a 96-well V-bottom cell culture plate with 200 μL per well. […] Plates were incubated on a titer-plate shaker at 37° C., 5% CO2 for 96 hours. After four days of incubation, plates were spun at 241×g for five minutes and medium was aspirated gently from each well of cell plate without disturbing cell pellet. Pellet was resuspended in 200 μL DPBS and plates were spun again at 241×g for five minutes. The supernatant was aspirated and cold (4° C.) Extraction buffer (100 μL) was added per well. Plates were incubated at 4° C. on orbital shaker for two hours. […] Supernatant (80 μL per well) was transferred to its respective well in 96 well V-bottom polypropylene plate. Neutralization Buffer 5× (20 μL per well) was added to V-bottom polypropylene plate containing supernatant. V-bottom polypropylene plates containing crude histone preparation (CHP) were incubated on orbital shaker×five minutes. Crude Histone Preparations were added (2 μL per well) to each respective well into duplicate 96 well ELISA plates containing 100 μL Coating Buffer (1×PBS+BSA 0.05% w/v). Plates were sealed and incubated overnight at 4° C. The following day, plates were washed three times with 300 μL per well 1×PBST. […] For H3K27me3 detection, 100 μL of HRP conjugated anti-rabbit IgG antibody diluted to 1:4000 in ELISA diluent was added per well. Plates were incubated at room temperature for 90 minutes. […] TMB substrate 100 μL was added per well. Histone H3 plates were incubated for five minutes at room temperature. H3K27me3 plates were incubated for 10 minutes at room temperature. The reaction was stopped with sulfuric acid 1N (100 μL per well). Absorbance for each plate was read at 450 nm.
# Each plate included eight control wells of DMSO only treatment (Minimum Inhibition) as well as eight control wells for maximum inhibition (Background wells).
# The average of the ratio values for each control type was calculated and used to determine the percent inhibition for each test well in the plate. […] Percent inhibition was determined and IC50 curves were generated using duplicate wells per concentration of compound.
# WSU-DLCL2 cells = assay: Cell proliferation analysis (WSU-DLCL2, Cell Titer Glo); assay type: cell-based; settings: Homo sapiens, 6 days
# Source text: Cell Proliferation Analysis
# WSU-DLCL2 suspension cells were purchased from DSMZ (German Collection of Microorganisms and Cell Cultures, Braunschweig, Germany). RPMI/Glutamax Medium, Penicillin-Streptomycin, Heat Inactivated Fetal Bovine Serum were purchased from Life Technologies, Grand Island, N.Y., USA. V-bottom polypropylene 384-well plates were purchased from Greiner Bio-One, Monroe, N.C., USA. Cell culture 384-well white opaque plates were purchased from Perkin Elmer, Waltham, Mass., USA. Cell-Titer Glo® was purchased from Promega Corporation, Madison, Wis., USA. SpectraMax M5 plate reader was purchased from Molecular Devices LLC, Sunnyvale, Calif., USA.
# A compound source plate was prepared by performing triplicate nine-point 3-fold serial dilutions in DMSO, beginning at 10 mM (final top concentration of compound in the assay was 20 μM and the DMSO was 0.2%). A 100 nL aliquot from the compound stock plate was added to its respective well in the cell plate. […] After addition of compounds, assay plates were incubated for 6 days at 37° C., 5% CO2, relative humidity >90% for 6 days. Cell viability was measured by quantization of ATP present in the cell cultures, adding 35 μl of Cell Titer Glo® reagent to the cell plates. Luminescence was read in the SpectraMax M5. The concentration inhibiting cell viability by 50% was determined using a 4-parametric fit of the normalized dose response curves.
# [2] = WSUDLCL2, Table 3A, read-out: H3K27Me3 ELISA IC50
# [3] = WSUDLCL2, Table 3B, read-out: WSU proliferation IC50
# [4] = WSUDLCL2, Table 3B, read-out: ELISA H3K27me3 IC50
Compound,"IC50 [1, 2]","IC50 (WSU-DLCL2 cells; WSUDLCL2, Table 3A, read-out: WSU Prolif. IC50)",IC50 (WSU-DLCL2 cells; [3]),"IC50 [1, 4]"
"CCN(c1cc(OCCN2CCOCC2)cc(C(=O)NCc2c(C)cc(C)[nH]c2=O)c1C)[C@H]1CC[C@H](N(C)CCOC)CC1 [Compound 13, N-((4,6-dimethyl-2-oxo-1,2-dihydropyridin-3-yl)methyl)-3-(ethyl((trans)-4-((2-methoxyethyl)(methyl)amino)cyclohexyl)amino)-2-methyl-5-(2-morpholinoethoxy)benzamide]",> 50 µM,,,
"CCN(c1cc(OCCCN2CCOCC2)cc(C(=O)NCc2c(C)cc(C)[nH]c2=O)c1C)[C@H]1CC[C@H](N(C)CCOC)CC1 [Compound 14, N-((4,6-dimethyl-2-oxo-1,2-dihydropyridin-3-yl)methyl)-3-(ethyl((trans)-4-((2-methoxyethyl)(methyl)amino)cyclohexyl)amino)-2-methyl-5-(3-morpholinopropoxy)benzamide]",17.1 µM,,,
CCN(c1cc(-c2ccc(CN3CCOCC3)cc2)cc(C(=O)NCc2c(C)cc(C)[nH]c2=O)c1C)[C@H]1CC[C@H](N(C)CCOC)CC1 [Compound 26],0.087 µM,0.138 µM,,
"CCN(c1cc(C#CC2CCN(C)CC2)cc(C(=O)NCc2c(C)cc(C)[nH]c2=O)c1C)C1CCOCC1 [Compound 105, N-((4,6-dimethyl-2-oxo-1,2-dihydropyridin-3-yl)methyl)-3-(ethyl(tetrahydro-2H-pyran-4-yl)amino)-2-methyl-5-((1-methylpiperidin-4-yl)ethynyl)benzamide]",0.15 µM,,,
CCN(c1cc(C#CCN2CCOCC2)cc(C(=O)NCc2c(C)cc(C)[nH]c2=O)c1C)C1CCC(N(C)C)CC1 (centres unmarked) [Compound 111],,,0.201 µM,0.014 µM
CCN(c1cc(C#CCN2CCCN(C)CC2)cc(C(=O)NCc2c(C)cc(C)[nH]c2=O)c1C)C1CCC(N(C)C)CC1 (centres unmarked) [Compound 112],,,0.798 µM,0.179 µM
CCN(c1cc(-c2ccc(N3CCN(C)CC3)nc2)cc(C(=O)NCc2c(C)cc(C)[nH]c2=O)c1C)C1C[C@@H](C)N[C@H](C)C1 (some centres unmarked) [Compound 124],,,0.158 µM,0.166 µM
CCN(c1cc(-c2ccc(N3CCN(C)CC3)nc2)cc(C(=O)NCc2c(C)cc(C)[nH]c2=O)c1C)C1CCN(C)CC1 [Compound 125],,,0.155 µM,0.291 µM
CCN(c1cc(-c2ccc(COC)nc2)cc(C(=O)NCc2c(C(C)C)cc(C)[nH]c2=O)c1C)C1CCOCC1 [Compound 129],,,0.254 µM,0.354 µM
CCN(c1cc(-c2ccc(OC)nc2)cc(C(=O)NCc2c(C)cc(C)[nH]c2=O)c1C)C1CCOCC1 [Compound 130],,,0.218 µM,0.217 µM
CCN(c1cc(-c2ccc(OC3CCN(C)CC3)nc2)cc(C(=O)NCc2c(C)cc(C)[nH]c2=O)c1C)C1CCOCC1 [Compound 133],,,0.503 µM,
CCN(c1cc(-c2ccc(CN3CCCN(C)CC3)nc2)cc(C(=O)NCc2c(C)cc(C)[nH]c2=O)c1C)C1CCOCC1 [Compound 135],,,0.176 µM,0.192 µM
CCN(c1cc(-c2ccc(CN3CCCN(C)CC3)nc2)cc(C(=O)NCc2c(C(C)C)cc(C)[nH]c2=O)c1C)C1CCOCC1 [Compound 136],,,0.566 µM,0.259 µM
CCN(c1cc(-c2ccc(N3CCCN(C)CC3)nc2)cc(C(=O)NCc2c(C)cc(C)[nH]c2=O)c1C)C1CCOCC1 [Compound 137],,,0.505 µM,0.056 µM
CCN(c1cc(-c2ccc(CN3CCCC3)nc2)cc(C(=O)NCc2c(C)cc(C)[nH]c2=O)c1C)C1CCOCC1 [Compound 138],,,0.178 µM,0.288 µM
CCN(c1cc(-c2ccc(CN3CCCCC3)nc2)cc(C(=O)NCc2c(C)cc(C)[nH]c2=O)c1C)C1CCOCC1 [Compound 139],,,0.0249 µM,0.0958 µM
CCN(c1cc(-c2ccc(CN3CCC(O)CC3)nc2)cc(C(=O)NCc2c(C(C)C)cc(C)[nH]c2=O)c1C)C1CCOCC1 [Compound 140],,,0.716 µM,
CCN(c1cc(-c2ccc(CN3CCC[C@H](O)C3)nc2)cc(C(=O)NCc2c(C(C)C)cc(C)[nH]c2=O)c1C)C1CCOCC1 [Compound 141],,,0.123 µM,0.349 µM
CCN(c1cc(-c2ccc(CN3CCC(O)CC3)c(F)c2)cc(C(=O)NCc2c(C)cc(C)[nH]c2=O)c1C)C1CCOCC1 [Compound 153],,,0.476 µM,
